According to publication PMC3715888, “A Fully Unsupervised Compartment-on-Demand Platform for Precise Nanoliter Assays of Time-Dependent Steady-State Enzyme Kinetics and Inhibition” (Analytical Chemistry, 2013):
Counter-ions that a name gives are not always drawn.

Molecular target: sweet almond β-glucosidase
Assay: droplet absorbance assay of 4-nitrophenyl glucopyranoside hydrolysis ([…] nm); IC50 […] converted to Ki by Cheng-Prusoff
Type: biochemical, Prunus dulcis

A Ki of about 36 µM was found for `OC[C@H]1NC[C@H](O)[C@@H](O)[C@@H]1O` [DNM, 1-deoxynojirimycin hydrochloride] in this work.
